# Where a SMILES comes first, the peptide text is derived from it. Bridges are numbered along the chain shown (N, C = ends). Roman numbers before positions name the chains, in order. Triazole bridges read from a SMILES are 1,4-linked. Where no end group is shown, it is not given here. Side-chain parts run from the residue outwards. [ ]: non-standard residue; d: D form. The star is where a group is joined. X2 = CN1C(=C/C=C/C=C/C2=[N+](CCCCCC(=O)*)c3ccc(S(=O)(=O)[O-])cc3C2(C)C)C(C)(C)c2cc(S(=O)(=O)O)ccc21; X1 = CN1C(=CC=CC=CC2=[N+](CCCCCC(=O)*)c3ccc(S(=O)(=O)[O-])cc3C2(C)C)C(C)(C)c2cc(S(=O)(=O)O)ccc21; Lys(N3) = [N-]=[N+]=NCCCC[C@H](N)C(=O)O; Cit = NC(=O)NCCC[C@H](N)C(=O)O; d(hCys) = N[C@H](CCS)C(=O)O; PEG3 = NCCOCCOCCOCCC(=O)O; Pra = C#CC[C@H](N)C(=O)O
# Key:
# [1] = target: T1, NanoLuc-MDM2 in HEK293_CMKLR1-eYFP cells (Homo sapiens, UniProt Q00987); experiment: Intracellular Cy5-PMIγ/NanoLuc-MDM2 BRET, cells with CMKLR1; format: cell-based; details: for displacement from MDM2 by 10 μM nutlin-3a (kinetic BRET): 72 h internalization; for BRET between NanoLuc-MDM2 and Cy5-labeled peptide: CMKLR1-expressing cells, 1 or 10 μM; for receptor-specific BRET under uptake competition: coincubation with 30 μM unlabeled peptide 1
# T1 construct: host or cells: HEK293 and HEK293_CMKLR1-eYFP
# Procedure: 4 Intracellular bioluminescence resonance energy transfer (BRET) between NanoLuc-MDM2 and Cy5-labeled PMIγ in living cells. (A) Peptides were incubated on HEK293 and HEK293_CMKLR1-eYFP cells for 72 h before BRET was measured. To evaluate the receptor-specific effect, ΔBRET was calculated by subtracting netBRET of cells without CMKLR from netBRET from cells with CMKLR1. Mean ± SEM from three independent experiments performed in duplicate. […] (B) Calculated ΔBRET values after different incubation times of peptides on the cells. (C, D) Same as panels (A) and (B), but peptide uptake was competed by coincubation with 30 μM peptide 1 (N3-cC9). (E, F) Displacement of PMIγ peptides from MDM2 after 72 h internalization in a kinetic BRET measurement. After 3 min, 10 μM of the small molecule MDM2 antagonist Nutlin-3a was added and the loss of NanoLuc-MDM2/Cy5-PMIγ BRET was observed. Mean (bold line) ± SEM (dotted lines) from three independent experiments is shown. […]
# Intracellular Cy5-PMIγ/NanoLuc-MDM2 bioluminescence resonance energy transfer […]
# HEK293 and stably transfected HEK293_CMKLR1-eYFP cells were seeded at 15,000 cells per well into poly-ᴅ-lysine coated 96-well plates (white Nunc MicroWell, Thermo). The next day, cells in each well were transfected with 0.1 µg Transfection Carrier DNA (Promega) and 0.001 µg NanoLuc-MDM2 fusion vector (Promega) using Lipofectamine 3000 (Invitrogen) according to manufactures instructions. Cells were incubated overnight, washed, allowed to recover for 4 h, washed again and dilutions of the Cy5-labeled peptides were added to the cells and incubated for 24,48 or 72 h. For uptake competition experiments, 30 µM of the unlabeled peptide 1 (N3-cC9) were additionally added to each well. After the incubation, excess peptide was washed away thoroughly, and cells were incubated for 4 h before the cell culture medium was replaced by 50 µl Fluorobrite DMEM with Nano-Glo Live Cell Reagent (Promega). After 10 min incubation, luminescence was measured in a Spark multimode plate reader (Tecan), and BRET ratio was calculated by […]
# dividing the Cy5-signal (670±30 nm) by the NanoLuc signal (450±20 nm). netBRET was calculated by subtracting the BRET ratio from cells which were incubated without peptide. To calculate the CMKLR1-specific effect, ΔBRET was calculated by subtracting the netBRET value obtained in cells without CMKLR1 from netBRET obtained in cells with CMKLR1. After the initial readout, a kinetic BRET displacement was performed with the same cells. For this, luminescence was measured every 22 s. After 3 min, 10 µM of the small molecule MDM2 antagonist Nutlin-3a (Sigma) was added to the cells and BRET was measured for another 7 min. Experiments were performed in technical duplicates and three independent times. Non-linear regression and statistical analysis were performed using Prism 10 (GraphPad).
# Analogous to the intracellular Cy5-PMIγ/NanoLuc-MDM2 BRET experiment, HEK293 and HEK293_CMKLR1-eYFP cells were seeded and transfected with 0.09 µg Transfection Carrier DNA, 0.01 µg […]
# were then incubated with dilutions of unlabeled PMIγ -peptides for 72 h or with Nutlin-3a for 24 h. During the last 30 min of the incubation, HaloTag TMR Ligand (Promega) was added to the cells to fluorescently label the p53-HaloTag fusion proteins in the cells. Cells were then washed thoroughly, incubated for 4 h in full cell culture medium without peptides, and the cell culture medium was then replaced by 50 µl Fluorobrite DMEM with Nano-Glo Live Cell Reagent. After 10 min incubation, luminescence was measured, and BRET ratio was calculated by dividing the TMR-signal (600±50 nm) by the NanoLuc signal (450±20 nm). netBRET was calculated and normalized to cells without peptide (100%) and cells which were not label ed with HaloTag TMR Ligand (0%). Experiments were performed in technical duplicates and at least twice. Non-linear regression and statistical analysis were performed using Prism 10 (GraphPad).
# HEK293_CMKLR1-eYFP cells = experiment: Resazurin based cell viability assay, peptides; details: 72 h incubation
# Procedure: page 3: […] 15% FCS. Calcium flux assay Calcium flux assay was performed with cells expressing CMKLR1 and the chimeric G protein […]. The stably transfected COS-7_CMKLR1-eYFP_ […] were seeded at 25,000 cells per well into poly-ᴅ-lysine-coated 96-well plates (black μCLEAR, Greiner). The next day, cells were incubated with […] (Sigma), 20 mM 4-(2-hydroxyethyl)-1-piperazineethanesulfonic acid (HEPES, Sigma) in Hanks' Balanced […] This solution was replaced by assay buffer, and basal Ca2+ signal (λex = 485 nm, λem = 525 nm) was measured for 20 s with a Flexstation 3 plate reader (Molecular Devices). Peptide dilutions were added, and the Ca2+ response was measured for 40 s. The maximum signal over baseline was calculated and normalized to peptide 1 (N3-cC9). Non-linear regression was performed using Prism 10 (GraphPad). Experiments were performed in technical duplicates and at least twice. Cell viability assay HEK293 and HEK293_CMKLR1-eYFP cells were seeded at 15,000 cells per well into poly-ᴅ-lysine coated 96-well plates (black μCLEAR, Greiner). […] Cells were then washed and a resazurin-based cell viability assay was performed. […] (1:1) + 15% FBS without phenol red was added to the cells. […] using the fluorescence of resorufin (λex = 550 nm, λem = 595 nm). Data was normalized to cells incubated without peptide (100%) and cells treated with ethanol for 3 min before resazurin addition (0%). Experiments were performed in technical triplicates and at least twice. Fluorescence microscopy Peptide internalization was evaluated by fluorescence microscopy. […] the cells and incubated for 6 h. […] All shown microscopy images are representative of at least two independent experiments. […] Resazurin based cell viability assay of HEK293 and HEK293_CMKLR1-eYFP cells after 72 h incubation with the p53/MDM2 inhibitor Nutlin-3a. […] 100 50 2Cy 3Cy 4Cy 0 -8 -7 -6 -5 -4 […]], log Figure S4. Resazurin based cell viability assay of HEK293_CMKLR1-eYFP cells after 72 h incubation with the PMIγ peptides discussed in this work. Mean ± SEM from two independent experiments performed in triplicates. 15 […]
# MDA-MB-231 cells = experiment: Fluorescence correlation spectroscopy (FCS) in the cytosol; format: cell-based; details: 72 h
# Description: Fluorescence correlation spectroscopy (FCS) […] Prior to measurements, the correction collar of the objective […] 1 τ 1 1 (Equation 2) G(τ) = ∗ (1 - […] 1 + ( τ )α √1 + S2 ∗ ( τ )α τD τD 4
# T1 sequence (Q00987 whole entry): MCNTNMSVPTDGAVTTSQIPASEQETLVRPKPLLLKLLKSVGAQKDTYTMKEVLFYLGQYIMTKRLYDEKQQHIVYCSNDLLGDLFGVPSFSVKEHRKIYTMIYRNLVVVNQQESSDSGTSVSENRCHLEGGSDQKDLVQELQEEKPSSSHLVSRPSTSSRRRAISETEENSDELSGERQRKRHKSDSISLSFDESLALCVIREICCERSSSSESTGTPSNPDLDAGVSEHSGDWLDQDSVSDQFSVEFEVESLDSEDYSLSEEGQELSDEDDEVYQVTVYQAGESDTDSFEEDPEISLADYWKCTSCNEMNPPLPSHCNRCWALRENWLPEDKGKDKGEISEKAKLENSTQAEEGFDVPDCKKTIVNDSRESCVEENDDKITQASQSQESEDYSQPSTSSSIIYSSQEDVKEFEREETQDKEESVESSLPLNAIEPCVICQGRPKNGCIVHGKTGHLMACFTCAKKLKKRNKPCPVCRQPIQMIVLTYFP
Compound,displacement from MDM2 by 10 μM nutlin-3a (kinetic BRET) ([1]; 1 μM extracellular peptide),BRET between NanoLuc-MDM2 and Cy5-labeled peptide ([1]; 72 h),receptor-specific BRET under uptake competition [1],cytotoxicity (HEK293_CMKLR1-eYFP cells),cytosolic FCS measurement (MDA-MB-231 cells),"loss of BRET after 10 μM nutlin-3a, compared with 2Cy ([1]; 1 μM extracellular peptide, 72 h)","ΔBRET (netBRET with CMKLR1 minus without) ([1]; 24, 48 and 72 h)"
CC(=O)N[C@@H](CCCCn1cc(C[C@H](NC(=O)CCOCCOCCOCCNC(=O)[C@H](CCCNC(N)=O)NC(=O)[C@@H](NC(=O)[C@H](CCC(=O)O)NC(=O)CNC(=O)CNC(=O)[C@@H](CCCNC(=N)N)NC(=O)[C@@H](CC(C)C)NC(=O)[C@@H](CC(C)C)NC(=O)[C@@H](C)NC(=O)[C@@H](CCC(=O)O)NC(=O)[C@@H](Cc2ccccc2)NC(=O)[C@@H](C)NC(=O)[C@@H](CC(C)C)NC(=O)[C@H]2CCCN2C(=O)[C@@H](Cc2c[nH]c3ccccc23)NC(=O)[C@@H](Cc2c[nH]c3ccccc23)NC(=O)[C@@H](CC(=O)O)NC(=O)CCOCCOCCOCCNC(=O)CCCCC[N+]2=C(/C=C/C=C/C=C3N(C)c4ccc(S(=O)(=O)O)cc4C3(C)C)C(C)(C)c3cc(S(=O)(=O)[O-])ccc32)C(C)C)C(N)=O)nn1)C(=O)N[C@@H](Cc1ccc(O)cc1)C(=O)N[C@@H](Cc1ccccc1)C(=O)N1CCC[C@H]1C(=O)N[C@@H]1CCSSC[C@@H](C(=O)O)NC(=O)[C@H](Cc2ccccc2)NC(=O)[C@H](C)NC(=O)[C@H](Cc2ccccc2)NC(=O)[C@H](CCC(N)=O)NC1=O [2Cy] (I: {X2-PEG3}-[dD][dW][dW][dP][dL][dA][dF][dE][dA][dL][dL][dR]GGEV[Cit][PEG3][Pra]-NH2 / II: Ac-[Lys(N3)]YFP[d(hCys)]QFAFC-OH; triazole I:19-II:1; disulfide II:5-II:10),seen only in CMKLR1-expressing cells,significantly elevated BRET,almost no receptor-specific BRET was detected,no signs of cytotoxicity,no successful measurements were obtained,,
I: GSVSHHHHHHGGHHHH[PEG3][dK]([PEG3-X1])[dD][dW][dW][dP][dL][dA][dF][dE][dA][dL][dL][dR]GEV[Cit][PEG3][Pra]-NH2 / II: Ac-[Lys(N3)]YFP[d(hCys)]QFAFC-OH (triazole I:36-II:1; disulfide II:5-II:10) [3Cy],seen only in CMKLR1-expressing cells,significantly elevated BRET,almost no receptor-specific BRET was detected,tolerated slightly worse at concentrations above 1 μM,no successful measurements were obtained,larger loss of BRET,slightly higher signal compared to 2Cy
